Measurements taken from patent EP0536208B1, “1,2-DIHYDRO-3H-DIBENZISOQUINOLINE-1,3-DIONE ANTICANCER AGENTS” (RESEARCH CORPORATION TECHNOLOGIES, INC., priority 1990, dated 1992).
≈ marks a conversion by molar mass, not a printed value. Like-named read-outs stand apart in the source and are kept apart here.

What was measured:
205p14 = experiment: Activity against human colon tumor cells (MTT assay, 3 day drug exposure); format: cell-based; conditions: cells plated 24 hr. prior to drug addition, read-out: Concentration for 50% inhibition of colony formation for human colon tumors
Experimental: (§1) For example, the compounds of the present invention were evaluated for cytotoxic activities in cloned human colon carcinomas. The clonogenic assays were conducted in accordance with the procedure described hereinbelow: 1) Colony Forming Assays in Soft Agar: Fresh human or murine tumors are disaggregated into single cell suspensions using mechanical, hypoosmotic and/or enzymatic (trypsin) methods. The single cells (about 5 X 10^4-10^5) are plated in 35 mm plastic petri dishes onto a 1 ml "feeder layer" of 0.3% agar dissolved in growth medium containing 5-10% vol/vol of heat-inactivated fetal bovine serum, molten 0.3% agar and the antibiotics penicillin (100 u/mL) and streptomycin (100 ug/mL). Drug exposures can be performed for one hour or continuously (drugs added to final plating medium). Tumor cell colonies > 60 uM in size are counted by automated image analysis after 10-20 days of incubation in a humidified, 5-10% CO2-gassed environment maintained at 37°C. Inhibition of colony formation is calculated based on comparisons to control (untreated) plates wherein the growth of hundreds of colonies/plate is typical. (Salmon SE, et al., N Engl J Med 298(24):1321-1327, 1978).
(§2) Compounds of the present invention were tested for their in vitro activity in tumor cells sensitive and resistant to standard anti-cancer agents. The tumor cell lines used in this protocol are 8226 human Myeloma^1; 8226/Dox-40^2, L-1210/Murine Leukemia, multidrug resistant L-210/^3, 2780 Human Ovarian Cancer and 2780/AD^4. Each of these resistant cell lines is known as a multidrug resistant or "MDR" cell line. These cell lines produce a 170,00 molecular weight membrane protein termed the P-glycoprotein which acts as an active drug efflux pump. Thus, once a cell produces the P-glycoprotein, it has the capability of pumping out of the cell a large variety of unrelated natural products. […] The protocol for measuring the effectiveness of compounds of the present invention is as follows: 2) In Vitro Tumor Cell Viability Assays Using MTT-Dye: Tumors are processed into a single cell suspension as described above. The cells are plated at a concentration of 3-5 X 10^4/1 mL well into plastic 96-well plates. Growth medium containing 5-10% (vol/vol) heat-inactivated fetal bovine serum and penicillin/streptomycin (as above) is added prior to incubation at 37°C for six days. Afterwards the medium containing the drug is removed, the cells are "washed" by centrifugation in fresh medium or phosphate-buffered saline (pH 7.4). A tetrazolium dye is then added (3,4,5-dimethylthiazol-2-yl)-2,5-diphenyl tetrazolium bromide (MTT). This dye forms a colored formazan product upon activation by mitochondrial reductases in viable cells. Typically, the formazan product is solubilized in acid-propanol or DMSO. The intensity of the color is proportional to viable cell numbers and this is quantitated by spectrophotometric absorbance ([…]) on a micro ELISA plate reader. Test results are calibrated in % control absorbance from untreated tumor cells (Mossman T: J Immunol Meth 65:55-63, 1983). Using the above procedure, Compound 1 was tested for its cytotoxic activity with respect to various tumor cell lines.

LOVOp32 = experiment: as above; format: cell-based; conditions: cells plated 24 hr. prior to drug addition, read-out: Concentration for 50% inhibition of colony formation for human colon tumors
Experimental: as §1, §2

SW80p105 = experiment: as above; format: cell-based; conditions: cells plated 24 hr. prior to drug addition, read-out: Concentration for 50% inhibition of colony formation for human colon tumors
Experimental: as §1
as §2, with “Growth medium containing 5-10% (vol/vol) heat-inactivated fetal bovine serum and penicillin/streptomycin (as above) is added prior to incubation at 37°C for six days.” left out

HT29p30 = experiment: as above; format: cell-based; conditions: cells plated 24 hr. prior to drug addition, read-out: Concentration for 50% inhibition of colony formation for human colon tumors
Experimental: as §1
as §2, with “Growth medium containing 5-10% (vol/vol) heat-inactivated fetal bovine serum and penicillin/streptomycin (as above) is added prior to incubation at 37°C for six days.” left out

L-1210/Murine Leukemia = experiment: In vitro tumor cell viability assay using MTT dye; format: cell-based; conditions: Mus musculus
Experimental: as §2, with “Growth medium containing 5-10% (vol/vol) heat-inactivated fetal bovine serum and penicillin/streptomycin (as above) is added prior to incubation at 37°C for six days.” left out

8226 Human Myeloma = experiment: In vitro tumor cell viability assay using MTT dye; format: cell-based; conditions: Homo sapiens; 8226 Myeloma Cells Sensitive; continuous exposure, MTT dye assay; read-out: IC50 VALUES
Experimental: as §2, with “Growth medium containing 5-10% (vol/vol) heat-inactivated fetal bovine serum and penicillin/streptomycin (as above) is added prior to incubation at 37°C for six days.” left out

8226/DOX-40 = experiment: In vitro tumor cell viability assay using MTT dye; format: cell-based, Human; conditions: Homo sapiens; 8226 Myeloma Cells Resistant; continuous exposure, MTT dye assay; read-out: IC50 VALUES
Experimental: as §2, with “Growth medium containing 5-10% (vol/vol) heat-inactivated fetal bovine serum and penicillin/streptomycin (as above) is added prior to incubation at 37°C for six days.” left out

Resistant L1210 = experiment: In vitro tumor cell viability assay using MTT dye; format: cell-based, Murine; conditions: Mus musculus
Experimental: as §2, with “Growth medium containing 5-10% (vol/vol) heat-inactivated fetal bovine serum and penicillin/streptomycin (as above) is added prior to incubation at 37°C for six days.” left out

[1] = 144 h, Sensitive L1210, six day MTT assay, continuous drug exposure, read-out: Concentration for 50% inhibition of tumor cells
[2] = L1210 Leukemia Cells Sensitive, continuous exposure, MTT dye assay, read-out: IC50 VALUES
[3] = 144 h, Resistant L1210, six day MTT assay, continuous drug exposure, read-out: Concentration for 50% inhibition of tumor cells
[4] = L1210 Leukemia Cells Resistant, continuous exposure, MTT dye assay, read-out: IC50 VALUES

SMILES	IC50 (205p14) [nM]	IC50 (LOVOp32) [nM]	IC50 (SW80p105) [nM]	IC50 (HT29p30) [nM]	IC50 (L-1210/Murine Leukemia; [1]) [ng/mL]	IC50 (Resistant L1210; [3]) [ng/mL]	also measured
CN(C)CCN1C(=O)c2cccc3cc4cccc([N+](=O)[O-])c4c(c23)C1=O [Compound 2, 2-[2-(dimethylamino)ethyl]-1,2-dihydro-11-nitro-2H-dibenz(deh)isoquinoline-1,3-dione]	3000	3000	2500	1750			
CN(C)CCN1C(=O)c2cccc3cc4cccc(N)c4c(c23)C1=O [Compound 3, 11-Amino-2-[2'-(dimethylamino)ethyl]-1,2-dihydro-3H-dibenz(deh)isoquinoline-1,3-dione]	2600	4000	3100	3600			
O=C1c2cccc3cc4ccccc4c(c23)C(=O)N1CCN1CCCCC1 [Compound 7, 2-[2'-(N-piperidino)ethyl]-1,2-dihydro-3H-dibenz(deh)isoquinoline-1,3-dione]	10000	750	1000	4400			
O=C1c2cccc3cc4ccccc4c(c23)C(=O)N1CCN1CCCC1 [Compound 8, 2-[2'-(N-pyrrolidino)ethyl]-1,2-dihydro-3H-dibenz(deh)isoquinoline-1,3-dione]	11700	1000	900	2600			
CCN1CCCC(N2C(=O)c3cccc4cc5ccccc5c(c34)C2=O)C1 (stereo not shown) [Compound 9, 2-(1'-ethyl-3'piperidinyl)-1,2-dihydro-3H-dibenz(deh)isoquinoline-1,3-dione]	17500	5600	3000	11200			
CN(C)c1ccc(N2C(=O)c3cccc4cc5ccccc5c(c34)C2=O)cc1 [Compound 10, 2-(4'-dimethylaminophenyl)-1,2-dihydro-3H-dibenz(deh)isoquinoline-1,3-dione]			750	250			
CN(C)CCCN1C(=O)c2cccc3cc4ccccc4c(c23)C1=O [Compound 11, 2-[3'-(dimethylamino)propyl]-1,2-dihydro-3H-dibenz(deh)isoquinoline-1,3-dione]	13500	1600	1300	8300			
O=C1c2cccc3cc4ccccc4c(c23)C(=O)N1CCCN(CCO)CCO [Compound 12]	11500	800	1300	8300			
CN(C)CCN1C(=O)c2cccc3cc4c([N+](=O)[O-])cccc4c(c23)C1=O [Compound 13, 2-[2'-(dimethylamino)ethyl]-1,2-dihydro-8-nitro-3H-dibenz(deh)isoquinoline-1,3-dione]					2.7 (≈ 7.43 nM)	3 (≈ 8.26 nM)	IC50 (L-1210/Murine Leukemia; [2]): 2.5 ng/mL (≈ 6.88 nM); IC50 (8226 Human Myeloma): 5 ng/mL (≈ 13.8 nM); IC50 (8226/DOX-40): 10 ng/mL (≈ 27.5 nM); IC50 (Resistant L1210; [4]): 2.9 ng/mL (≈ 7.98 nM)
CN(C)CCN1C(=O)c2cccc3cc4c(N)cccc4c(c23)C1=O [Compound 14, 8-Amino-2-[2'-(dimethylamino)ethyl]-1,2-dihydro-3H-dibenz-(deh)isoquinoline-1,3-dione]					5000 (≈ 15000 nM)		IC50 (L-1210/Murine Leukemia; [2]): 5000 ng/mL (≈ 15000 nM); IC50 (8226 Human Myeloma): > 100 ng/mL; IC50 (8226/DOX-40): > 100 ng/mL; IC50 (Resistant L1210; [4]): > 5000 ng/mL
CCc1ccc2c3c(c4ccccc4cc13)C(=O)N(CCN(C)C)C2=O [Compound 15, 2-[2'-(dimethylamino)ethyl]1,2-dihydro-6-ethyl-3H-dibenz(deh)isoquinoline-1,3-dione]					3.1 (≈ 8.95 nM)	3.1 (≈ 8.95 nM)	
CN(C)CCN1C(=O)c2cccc3cc4ccc(Cl)cc4c(c23)C1=O [Compound 16, 10-Chloro-2-[2'-(dimethylamino)ethyl]-1,2-dihydro-3H-dibenz(deh)isoquinoline-1,3-dione]					2.5 (≈ 7.09 nM)	2 (≈ 5.67 nM)	
CN(C)CCN1C(=O)c2cccc3c(Cl)c4ccccc4c(c23)C1=O [Compound 17, 7-Chloro-2-[2'-(dimethylamino)ethyl]-1,2-dihydro-3H-dibenz(deh)-isoquinoline-1,3-dione]					28 (≈ 79.4 nM)	30 (≈ 85 nM)	
Cc1c2ccccc2c2c3c(cccc13)C(=O)N(CCN(C)C)C2=O [Compound 19, 2-[2'-(Dimethylamino)ethyl]-1,2-dihydro-7-methyl-3H-dibenz(deh)isoquinoline-1,3-dione]					3 (≈ 9.03 nM)	3 (≈ 9.03 nM)	
COc1c2ccccc2c2c3c(cccc13)C(=O)N(CCN(C)C)C2=O [Compound 20, 2-[2'-(Dimethylamino)ethyl]-1,2-dihydro-7-methoxy-3H-dibenz-(deh)isoquinoline-1,3-dione]					3.2 (≈ 9.18 nM)	2.8 (≈ 8.04 nM)	
CN(C)CCN1C(=O)c2cccc3c(O)c4ccccc4c(c23)C1=O [Compound 21, 2-[2'-(dimethylamino)ethyl]-1,2-dihydro-7-hydroxy-3H-dibenz(deh)isoquinoline-1,3-dione]					3.2 (≈ 9.57 nM)	3.2 (≈ 9.57 nM)	
CNCCN1C(=O)c2cccc3cc4ccccc4c(c23)C1=O [Compound 22, 1,2-Dihydro-2-[2'-(methylamino)ethyl]-3H-dibenz(deh)isoquinoline-1,3-dione]					3.2 (≈ 10.5 nM)	2.7 (≈ 8.87 nM)	
